# Values of other authors as cited in publication PMC5131915, “Platinum(II) Iodido Complexes of 7-Azaindoles with Significant Antiproliferative Effects: An Old Story Revisited with Unexpected Outcomes” (PLoS ONE, 2016).
# Key:
# Settings in all cases: cited from earlier work
# [1] = tested on: A2780, T-47D human breast carcinoma and WiDr human colon carcinoma cell lines; set-up: method as in PMID 24900222
# [2] = tested on: HCT116 colon carcinoma cells
# [3] = tested on: HT29 colon carcinoma cells
# HeLa cells = tested on: HeLa cells; set-up: method as in PMID 22225466
structure (smiles),measurement,setting,value
CC(C)N.CC(C)N.[I][Pt][I] [cis-[PtI2(ipam)2]],times more potent than cisplatin,[1],≤ 11 times
O=C1[O][Pt]2([NH][C@@H]3CCCC[C@H]3[NH]2)[O]C1=O [oxaliplatin],IC50,[2],300 nM
same,IC50,[3],700 nM
C[NH+](C)[Pt-2]([I])([I])[NH+](C)C [trans-[PtI2(L1)2]],factor by which activity of cisplatin is exceeded,HeLa cells,~6
